Measured values published in patent US20130131008A1, “LIPOPHILIC MONOPHOSPHORYLATED DERIVATIVES AND NANOPARTICLES” (BOARD OF REGENTS, THE UNIVERSITY OF TEXAS SYSTEM, priority 2011, published 2013).
Where two headings read alike, the source gives them in different places.

Assays:
TC-1-GR tumors = conditions: mice with pre-established TC-1-GR tumors; cited from earlier work
PANC-1 cells [1] = conditions: literature value; read-out: IC50 in PANC-1 cells reported by Duxbury et al.; cited from earlier work
B16-F10 melanoma tumor = test: Antitumor activity of GemC18/PEG-C18 micelles in mice with B16-F10 tumors (Example 20); format: in vivo, mouse; conditions: C57BL/6 mice, tail vein injection, 0.283 mg GemHCl or molar equivalent GemC18; 2 doses (micelles 3 doses), 3 days apart
Procedure: The in vivo antitumor activity of GemC18/PEG-C18 micelles was evaluated in C57BL/6 mice with subcutaneously inoculated B16-F10 cells (5.0×10^5/mouse) in the right flank. Treatments were given 6 days after tumor cell inoculation by tail vein injection with normal saline, Gemcitabine HCl (GemHCl) solution, GemC18 solution, blank PEG-C18 micelles, or GemC18/PEG-C18 micelles. The dose was 0.283 mg of GemHCl or molar equivalent amount of GemC18. All groups received a second dose three days after the first dose, while the GemC18/PEG-C18 micelle group also received a third dose 3 days after the second dose. Tumor sizes were measured with calipers in two perpendicular diameters every day and reported as tumor volume (V=½ [a×b^2], a=longer diameter, b=shorter diameter).

TC-1 cells = test: In vitro cytotoxicity assay (MTT), 48 h; format: cell-based; conditions: Mus musculus, TC-1, 48 h incubation
Source text: (§1) Human leukemia cell line CCRF-CEM (CCL-119), human pancreatic cancer cell lines PANC-1 (CRL-1469), MIA PaCa-2 (CRL-1420), and BxPC-3 (CRL-1687), human breast adenocarcinoma cell line MCF-7 (HTB-22), and mouse lung cancer cell line TC-1 (CRL-2785) were from the American Type Culture Collection (Rockville, Md.). CCRF-CEM-AraC-8C cells (hENT1 deficient) and CCRF-CEM/dCK^−/− cells (dCK deficient) were kindly provided by Dr. Buddy Ullmann (Oregon Health & Science University, Portland, Oreg.) and Dr. Margaret Black (Washington State University, Pullman, Wash.), respectively. L1210 wt and L1210 10K were kindly supplied by Dr. Lars Petter Jordheim (Université Claude Bernard Lyon I, Lyon, France). TC-1-GR cells were previously developed in our lab. CCRF-CEM, CCRF-CEM-AraC-8C, CCRF-CEM/dCK^−/−, L1210 wt, L1210 10K, TC-1, and TC-1-GR cells were cultured in RPMI 1640 medium. MCF-7 and PANC-1 cells were cultured in Dulbecco's modified Eagle medium (DMEM), MIA PaCa-2 cells were cultured in DMEM medium with 2.5% horse serum. All media were supplemented with 10% fetal bovine serum (FBS), 100 U/mL of penicillin, and 100 μg/mL of streptomycin (all from Invitrogen, Carlsbad, Calif.).
(§2) Cells (5,000/well) were seeded in 96-well plates. After overnight incubation, they were treated with various concentrations of gemcitabine HCl, gemcitabine derivatives, or gemcitabine derivatives in nanoparticles at 37° C., 5% CO2. TC-1 and TC-1-GR cells were incubated for 48 h. CCRF-CEM, CCRF-CEM-AraC-8C, CCRF-CEM/dCK^−/−, L1210 wt, L1210 10K, and MCF-7 cells were incubated for 72 h, and MIA PaCa-2 and PANC-1 for 96 h. Gemcitabine HCl was dissolved in phosphate-buffered saline (PBS), and gemcitabine derivatives were dissolved in dimethyl sulfoxide (DMSO). […] The number of viable cells after the incubation was determined using an MTT assay. Briefly, 3-(4,5-dimethylthiazol-2-yl)-2,5-diphenyltetrazolium bromide (20 μl, 5 mg/mL) was added in each well and incubated for 3 h. Formazan crystals were solubilized with acidified isopropanol (150 μl) (for CCRF-CEM, CCRF-CEM-AraC-8C, CCRF-CEM/dCK^−/−, L1210 wt, and L1210 10K cells) or DMSO (150 μl) (for TC-1, TC-1-GR, MCF-7, PANC-1, and MIA PaCa-2). Absorbance was measured using a BioTek Synergy™ HT Multi-Mode Microplate Reader (BioTek Instruments, Winooski, Vt.) at 570 nm and 630 nm. The fraction of affected (dead) cells (Fa) and the fraction of unaffected (live) cells (Fu) at every dose were calculated, and the Log(Fa/Fu) values were plotted against the Log(concentration of gemcitabine). IC50 was the dose at Log(Fa/Fu)=0, See e.g., Chou, T. C. & Talalay, P., 1984, Adv. Enzyme Regul. 22:27-55. The experiment was repeated at least three times.

MIA PaCa-2 cells = test: In vitro cytotoxicity assay (MTT), 96 h; format: cell-based, human; conditions: Homo sapiens, MIA PaCa-2, 96 h incubation
Source text: as §1, §2

TC-1-GR cells = test: cells; format: cell-based
Source text: as §1, §2

PANC-1 cells [2] = test: In vitro cytotoxicity assay (MTT), 96 h, RRM2 over-expressing cells; format: cell-based, human; conditions: for Ratio of IC50 in PANC-1 to that in MIA PaCa-2: HCl
Source text: as §1, §2

Cl.Nc1ccn([C@@H]2O[C@H](CO)[C@@H](O)C2(F)F)c(=O)n1 [Gemcitabine HCl, 2′,2′-difluorodeoxycytidine HCl, reference compound]
TC-1-GR tumor growth in mice (previous study) (TC-1-GR tumors): did not show any significant anti-tumor activity
IC50 (PANC-1 cells [1]): 50 nM
B16-F10 tumor growth (tumor volume) (B16-F10 melanoma tumor): not significant different from that in mice that received normal saline
IC50 (TC-1 cells): 14.7 ± 2.8 nM
IC50 (MIA PaCa-2 cells): 49.7 ± 17.7 nM
Ratio of IC50 in TC-1-GR to that in TC-1 (TC-1-GR cells): 2,497
Ratio of IC50 values in TC-1-GR cells (TC-1-GR cells; IC50 of gemcitabine HCl divided by that of the derivatives or derivatives in nanoparticles): 1
IC50 (TC-1-GR cells; Mus musculus, MTT, 48 h incubation, RRM1 over-expressing): 36700 ± 5100 nM
Ratio of IC50 in PANC-1 to that in MIA PaCa-2 (PANC-1 cells [2]): >8,000
IC50 (PANC-1 cells [2]; Homo sapiens, PANC-1, MTT, 96 h incubation, RRM2 over-expressing): > 400000 nM
PANC-1 cells still alive (PANC-1 cells [2]; after 96 h of incubation with 400 μM): more than 50%
Ratio of IC50 in PANC-1 to that in MIA PaCa-2 (PANC-1 cells [2]; listed as gemcitabine HCl): more than 8,000
